Measured values from US20260068882A1, “ARTHROPOD CONTROLLING COMPOSITION” (Firmenich SA, priority 2019, published 2026).
Read-outs that look alike come from different tables or passages of the source.

Columns and labels:
Aedes aegypti [1] = assay: In vivo K&D assay on treated skin of human study participants
Description: For the K&D in vivo test [Klun J A, Debboun M. A new module for quantitative evaluation of controlling efficacy using human subjects. J Med Entomol. 2000; 37:177-81.], 3 study participants, 2 females and 1 male, showing low or no skin reactions against mosquito bites were recruited at the Swiss Tropical and Public Health Institute (Swiss TPH). […] The study was approved by the Ethics Commission of Northwest and Central Switzerland (Study no. PB_2017-00436-220/11) and all study participants signed an informed consent form. To avoid unwanted bias the participants were asked to avoid alcohol and products such as perfume, eau de cologne and lotions for at least 12 hours before and during the experiments. During the experiments the participants were also asked to avoid rubbing, touching or wetting the arthropod controlling compound-treated area as well as any activity that might lead to increased perspiration.
In the in vivo assay, a template was used to delineate 4 cm×5 cm areas on the skin that correspond to each of the six cell openings (3 cm×4 cm) on the bottom of the K&D module. Five areas were treated with the different tested stimuli. The module, with five host-seeking, 5- to 10-day-old mosquitoes in each cell, was then positioned over the treated skin area. The number of mosquitoes blood feeding within a 2-minute exposure was recorded. This procedure was repeated until six replicate exposures and observations (i.e. 30 mosquitoes) were made for the three study participants.

Aedes aegypti [2] = assay: In vivo arm in cage test on forearm of human volunteers; conditions: for % of repellency MEAN: 20% in ethanol on forearm, three volunteers
Procedure: The Arm in the box method was adapted from the WHO Guidelines for efficacy testing of mosquito repellents for human skin (WHO/CDS/NTD/WHOPES/2009.4). The readiness of 100 hungry female mosquitoes A. aegypti to probe is assessed by inserting an untreated arm into the cage (40×40×40 cm) for 30 seconds (negative control) three times (once at the beginning, once at the fourth hour and once at the eighth hour), to determine probing activity.
Then, the product is applied onto the skin of the forearm of a human volunteer (1 ml per 600 cm^2) and after 5 minutes, this arm is inserted into the cage and exposed for 3 minutes. The assay take place in temperature (27±2° C.) and humidity (80±10% RH) regulated room on three different volunteers.

Ixodes ricinus = assay: In vitro Warm Plate Assay for ticks; format: in vivo
Method in brief: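 Repellency against last-stage Ixodes ricinus nymphs in an in vitro warm plate assay, compounds diluted in ethanol at 0.4 and 10 mg/mL, 0.0016% to 1%, or 20% (w/w). Ticks walking down or falling from the treated plate scored as affected, walking up as unaffected; groups of 12 ticks, n=2-5.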

Aedes aegypti [3] = assay: In vivo arm in cage test on forearm of human volunteers; conditions: 20% in ethanol on forearm; 0.05 h post application; three volunteers

**Q.** Which results are given for `Cc1ccc2c(c1)CC(C)(CO)C2` (stereo not shown) [ingredient #2, (2,5-dimethyl-2,3-dihydro-1H-inden-2yl)methanol]?
**A.** % repulsion (Aedes aegypti [1]; 0.02% in ethanol on human skin): 23.3%; % repulsion (Aedes aegypti [1]; 0.1% in ethanol on human skin): 27.8%; % repulsion (Aedes aegypti [1]; 0.5% in ethanol on human skin): 54.4%; % repulsion (Aedes aegypti [1]; 2.5% in ethanol on human skin): 82.2%; % repulsion (Aedes aegypti [1]; 10% in ethanol on human skin): 93.3%; concentration from which a significant repellent effect is shown (Aedes aegypti [1]; on its own, in ethanol): ≥ 0.5%; % of repellency MEAN (Aedes aegypti [2]; 1 h post application): 98.83%; % of repellency MEAN (Aedes aegypti [2]; 2 h post application): 97.79%; % of repellency MEAN (Aedes aegypti [2]; 3 h post application): 96.72%; % of repellency MEAN (Aedes aegypti [2]; 4 h post application): 94.71%; % of repellency MEAN (Aedes aegypti [2]; 5 h post application): 94.05%; % of repellency MEAN (Aedes aegypti [2]; 6 h post application): 91.99%; % of repellency MEAN (Aedes aegypti [2]; 7 h post application): 90.91%; % of repellency MEAN (Aedes aegypti [2]; 8 h post application): 84.67%; reduction of the number of mosquitoes landing on the volunteers' arm (Aedes aegypti [2]; 20% in ethanol, for up to 7 h): more than 90%; percentage of ticks being affected (Ixodes ricinus; 0.00032% (Table 9)): 0%; MEAN % affected (ticks) (Ixodes ricinus; 0.4 mg/mL in ethanol (Table 5)): 21%; percentage of ticks being affected (Ixodes ricinus; 0.00071% (Table 9)): 15%; percentage of ticks being affected (Ixodes ricinus; 0.0016% (Table 9)): 17%; percentage of ticks being affected (Ixodes ricinus; 0.00357% (Table 9)): 0%; percentage of ticks being affected (Ixodes ricinus; 0.0053% (Table 9)): 15%; percentage of ticks being affected (Ixodes ricinus; 0.008% (Table 9)): 0%; MEAN % affected (ticks) (Ixodes ricinus; 10 mg/mL in ethanol (Table 5)): 92%; percentage of ticks being affected (Ixodes ricinus; 0.0119% (Table 9)): 8%; percentage of ticks being affected (Ixodes ricinus; 0.0178% (Table 9)): 17%; percentage of ticks being affected (Ixodes ricinus; 0.0267% (Table 9)): 38%; percentage of ticks being affected (Ixodes ricinus; 0.04% (Table 9)): 0%; percentage of ticks being affected (Ixodes ricinus; 0.0598% (Table 9)): 31%; percentage of ticks being affected (Ixodes ricinus; 0.089% (Table 9)): 29%; percentage of ticks being affected (Ixodes ricinus; 0.2% (Table 9)): 85%; percentage of ticks being affected (Ixodes ricinus; 0.447% (Table 9)): 100%; ticks affected / not affected over 12 (in words) (Ixodes ricinus; 1%): only one tick over 12 was not affected; percentage of ticks being affected (Ixodes ricinus; 1% (Table 9)): 71%; percentage of ticks affected overtime (Ixodes ricinus; 20% (w/w) in ethanol, 0.25 h post-application): 100%; percentage of ticks affected overtime (Ixodes ricinus; 20% (w/w) in ethanol, 0.5 h post-application): 83%; percentage of ticks affected overtime (Ixodes ricinus; 20% (w/w) in ethanol, 1 h post-application): 100%; percentage of ticks affected overtime (Ixodes ricinus; 20% (w/w) in ethanol, 2 h post-application): 100%; percentage of ticks affected overtime (Ixodes ricinus; 20% (w/w) in ethanol, 4 h post-application): 0%; percentage of ticks affected overtime (Ixodes ricinus; 20% (w/w) in ethanol, 6 h post-application): 8%; ticks' repellency overtime (in words) (Ixodes ricinus; 20% (w/w) in ethanol, Table 14): better ticks' repellency than the known repellent; pest or weed control at 0.0016 % (Ixodes ricinus; Ixodes ricinus, 0.0016% (Table 11), read-out: percentage of ticks affected on the Warm Plate): 8%; pest or weed control at 0.0016 % (Ixodes ricinus; Ixodes ricinus, 0.0016% in ethanol (Table 12), read-out: percentage of ticks affected on the Warm Plate): 17%; pest or weed control at 0.0053 % (Ixodes ricinus; Ixodes ricinus, 0.0053% in ethanol (Table 12), read-out: percentage of ticks affected on the Warm Plate): 15%; pest or weed control at 0.008 % (Ixodes ricinus; Ixodes ricinus, 0.008% in ethanol (Table 12), read-out: percentage of ticks affected on the Warm Plate): 0%; pest or weed control at 0.0119 % (Ixodes ricinus; Ixodes ricinus, 0.0119% in ethanol (Table 12), read-out: percentage of ticks affected on the Warm Plate): 8%; pest or weed control at 0.0178 % (Ixodes ricinus; Ixodes ricinus, 0.0178% in ethanol (Table 12), read-out: percentage of ticks affected on the Warm Plate): 17%; pest or weed control at 0.0267 % (Ixodes ricinus; Ixodes ricinus, 0.0267% in ethanol (Table 12), read-out: percentage of ticks affected on the Warm Plate): 38%; pest or weed control at 0.04 % (Ixodes ricinus; Ixodes ricinus, 0.04% (Table 11), read-out: percentage of ticks affected on the Warm Plate): 0%; pest or weed control at 0.04 % (Ixodes ricinus; Ixodes ricinus, 0.04% in ethanol (Table 12), read-out: percentage of ticks affected on the Warm Plate): 0%; pest or weed control at 0.0598 % (Ixodes ricinus; Ixodes ricinus, 0.0598% in ethanol (Table 12), read-out: percentage of ticks affected on the Warm Plate): 31%; pest or weed control at 0.089 % (Ixodes ricinus; Ixodes ricinus, 0.089% in ethanol (Table 12), read-out: percentage of ticks affected on the Warm Plate): 29%; pest or weed control at 0.2 % (Ixodes ricinus; Ixodes ricinus, 0.2% in ethanol (Table 12), read-out: percentage of ticks affected on the Warm Plate): 85%; pest or weed control at 0.447 % (Ixodes ricinus; Ixodes ricinus, 0.447% in ethanol (Table 12), read-out: percentage of ticks affected on the Warm Plate): 100%; pest or weed control at 1 % (Ixodes ricinus; Ixodes ricinus, 1% (Table 11), read-out: percentage of ticks affected on the Warm Plate): 92%; pest or weed control at 1 % (Ixodes ricinus; Ixodes ricinus, 1% in ethanol (Table 12), read-out: percentage of ticks affected on the Warm Plate): 71%; threshold concentration to be efficient to repel the ticks (Ixodes ricinus; Table 9): above 0.2%; ticks affected (Ixodes ricinus; dose of 0.89%): 29%; % of repellency MEAN (Aedes aegypti [3]): 99.1%
